Patent US7018802B2, “Electrochemiluminescent enzyme immunoassay” (BioVeris Corporation, priority 1995, dated 2006)
Where two headings read alike, the source gives them in different places.

Legend:
[1] = molecular target: T1, β-lactamase I from Bacillus cereus (Bacillus cereus, UniProt P00809); type: biochemical; conditions: for ECL increase upon enzyme hydrolysis, second experiment: incubating time with enzyme 60 minutes, ampicillin with Ru(bpy)3^+2, FIG. 9
Procedure: ECL properties were compared both before and after NaOH and enzymatic hydrolysis (FIG. 7).
Following 30 minute incubations, the solutions were neutralized with 50 μL of 5 M HCl. […] Following 30 minute incubations, 50 μL of 5 M NaCl was added to these solutions.
ECL properties were compared before and after NaOH and enzymatic hydrolysis.
Following 30 minute incubations, the solutions were neutralized with 50 μL of 5 M HCl. […] Following 60 minute incubations, 50 μL of 5 M NaCl was added to these solutions.

[2] = molecular target: T1, β-lactamase I from Bacillus cereus; conditions: in words
[3] = 3.8 μM β-lactamase I, 23.0 μM, 6-APA in equimolar mixture with Ru(bpy)3^+2 (nonconjugated), FIG. 11
[4] = 347 nM β-lactamase I, 30 minutes, 30 μM, ampicillin in equimolar mixture with Ru(bpy)3^+2 (nonconjugated), FIG. 8

T1 sequence (P00809 28-306): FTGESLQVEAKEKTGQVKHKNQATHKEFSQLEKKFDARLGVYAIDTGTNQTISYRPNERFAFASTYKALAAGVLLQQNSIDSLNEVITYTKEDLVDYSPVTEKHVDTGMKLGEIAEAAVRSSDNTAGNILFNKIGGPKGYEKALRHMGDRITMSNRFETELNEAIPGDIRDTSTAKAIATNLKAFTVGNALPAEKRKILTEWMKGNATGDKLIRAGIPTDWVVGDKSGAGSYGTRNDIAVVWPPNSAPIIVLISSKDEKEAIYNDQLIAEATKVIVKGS

Compound | ECL increase upon enzyme hydrolysis [1, 3] | substrate quality for β-lactamase [2] | ECL increase upon enzyme hydrolysis [1, 4] | ECL increase upon enzyme hydrolysis, second experiment [1]
Ru(bpy)3^+2-labeled 6-aminopenicillanic acid [Ru-APA] | 31.8 fold | very good substrate |  | 
Ru(bpy)3^+2-labeled ampicillin [Ru-AMP] |  | very good substrate | 9.8 fold | 11.1 fold
CC1(C)S[C@@H]2[C@H](N)C(=O)N2[C@H]1C(=O)O [6-APA, 6-aminopenicillanic acid, reference compound] | 1.4 fold |  |  | 
CC1(C)S[C@@H]2[C@H](NC(=O)[C@H](N)c3ccccc3)C(=O)N2[C@H]1C(=O)O [ampicillin, reference compound] |  |  | 2.1 fold | 2.5 fold
